Measured values published in PubChem BioAssay AID747 (Structural Genomics Consortium, 2007).

Target: Sulfotransferase 1E1 (Homo sapiens) (UniProt P49888)
Assay: ligand binding to SULT1E1 via aggregation temperature – biophysical, StarGazer light scattering, human (AID 747)
Details: purified SULT1E1, StarGazer light scattering thermal shift; at 1 mM; stronger effect = higher value

Chain of Sulfotransferase 1E1 (Homo sapiens) (P49888 whole entry, looked up): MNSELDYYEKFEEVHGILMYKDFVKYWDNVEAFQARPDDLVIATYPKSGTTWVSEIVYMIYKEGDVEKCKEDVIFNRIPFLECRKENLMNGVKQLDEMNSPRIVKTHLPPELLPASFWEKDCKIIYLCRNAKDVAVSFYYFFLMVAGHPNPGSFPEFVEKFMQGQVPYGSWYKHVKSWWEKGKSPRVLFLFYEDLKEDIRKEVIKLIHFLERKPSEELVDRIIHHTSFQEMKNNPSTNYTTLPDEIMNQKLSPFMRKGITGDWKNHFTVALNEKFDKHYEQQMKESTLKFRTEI

Compound	Tagg shift [°C]
NC[C@H](O)c1ccc(O)c(O)c1	0
Oc1ccc(/C=C/c2cc(O)cc(O)c2)cc1	2.25
CC(C)NCC(O)c1ccc(O)c(O)c1 (stereo unspecified)	0
O=[N+]([O-])c1cc(Cl)c(O)c(Cl)c1	1.4
Oc1c(Cl)c(Cl)c(Cl)c(Cl)c1Cl	0
O=c1c(O)c(-c2ccc(O)c(O)c2)oc2cc(O)cc(O)c12	1.95
O=C(O)c1ccccc1O	0
Oc1ccc2ccccc2c1	0
CN1CCc2cccc3c2C1Cc1ccc(O)c(O)c1-3 (stereo unspecified)	0
Nc1ccc(O)cc1	0
Cc1cccc(Nc2ccccc2C(=O)O)c1C	2.35
CCC(C)c1ccccc1O (stereo unspecified)	0
CCCc1ccccc1O	0
COC(=O)CCC(C)C1CCC2C3CCC4CC(O)CCC4(C)C3CCC12C (stereo unspecified)	1.2
COc1cc(C=O)ccc1O	0
CNCC(O)c1ccc(O)c(O)c1 (stereo unspecified)	0
Oc1cccc2ccccc12	0
C[C@]12CC[C@@H]3c4ccc(O)cc4CC[C@H]3[C@@H]1CCC2=O	1.1
C[C@H]1CCC[C@H](O)CCC/C=C/c2cc(O)cc(O)c2C(=O)O1	1.3
NCCc1ccc(O)c(O)c1	0
C[C@]12CC[C@H](OS(=O)(=O)O)CC1=CC[C@@H]1[C@@H]2CC[C@]2(C)C(=O)CC[C@@H]12	1.1
Cc1ccc(O)cc1	0
NC(Cc1cc(I)c(Oc2ccc(O)c(I)c2)c(I)c1)C(=O)O (stereo unspecified)	2.6
C[C@]12CC[C@@H]3c4cc(O)c(O)cc4CC[C@H]3[C@@H]1CC[C@@H]2O	1.55
CCc1ccccc1O	0
Cc1ncc(COP(=O)(O)O)c(C=O)c1O	3.95
